{"source": "patent US20100247688A1", "about": "(priority 2007, published 2010)", "key": {"[1]": {"assay": "in vivo", "details": "rat", "experimental": "AC-92 was prepared in DMSO and diluted in sterile phosphate buffered saline (final DMSO concentration 1.0%). […] Animals were sacrificed at 3 and 6 hours after dosing via lethal narcosis. Blood was sampled via cardiac puncture. Serum was prepared by allowing whole blood to stand at 4° C. for 60 min; plasma was prepared using heparin as the anti-coagulant. CSF was collected via the foramen magnum immediately after sacrifice. Brain material was collected by opening of the skull and simple excision of the right cortex. Samples were snap frozen using liquid nitrogen immediately after collection. All procedures were conducted in conformity with applicable German and EU laws on animal experimentation and the study was approved by a government appointed ethics committee.\nTo determine the extent of central exposure, bioavailability studies were undertaken."}, "[2]": {"system": "APPPS1 transgenic mice", "assay": "Plaque load, plaque volume and area in APPPS1 transgenic model for cerebral amyloidosis", "format": "in vivo, mouse", "details": "for increase of amyloid load as % of that expected with normal progression of the model: AC-92 after 3 months, AC-91 at month 5; for plaque volume and area smaller than vehicle-treated controls: APPPS1 mice", "experimental": "The transgenic model and corresponding […] analysis of brain sections was provided by Prof. Mathias Jucker, Department of Cellular Neurology, Hertie-Institute for Clinical Brain Research University of Tübingen, Otfried-Müller Strasse 27, D-72076 Tübingen, Germany. APPPS1 transgenic mice express both KM670/671NL mutated human APP and L166P mutated human PS1 under the Thy-1 promoter element (Radde et al., 2005). They were treated with the compounds from the age of 126 days after birth (DAB) to 158 DAB. […] On completion of the dosing period, animals were sacrificed by lethal narcosis followed by collection of blood by cardiac puncture and recovery of brain material for sectioning and extraction of drug and relevant peptides. […] Brains were removed and postfixed at 4° C. in 4% PFA, dehydrated in 30% sucrose, and frozen. Serial coronal serial 40 μm sections were cut with a microtome and collected in cryoprotectant (30% glycerol, 45% ethylene glycol in PBS) and stored at −20° C. until use.\nFree-floating sections were processed for immunohistochemistry as described elsewhere (Stalder et al., 2005). Briefly, sections were washed in TBS and blocked with 3% goat or donkey serum (Vector Laboratories Inc., Burlingame, Calif.) in 0.3% Triton-X-100 (Fisher, Fair Lawn, N.J.). The sections were incubated overnight with primary antibodies at 4° C. in 2% serum and 0.3% Triton-X-100, washed three times with TBS and incubated for 3 hours with biotin-conjugated secondary antibodies. After repeated TBS washing, sections were stained by complexing with SG blue (Vectastain ABC elite kit; Vector Laboratories). Sections were mounted on precleaned glass microscope slides (Superfrost® Plus; Langenbrinck, Teningen, Germany), dehydrated with an alcohol series, cleared in xylene and coverslipped in a xylene soluble mounting medium (Pertex®, medite GmbH, Burgdorf, Germany). Amyloid load was estimated on every 12th section throughout the entire neocortex.\nIn vivo experiments were performed using a very aggressive double transgenic mouse model for cerebral amyloidosis (Radde et al., 2006). APPPS1 transgenic mice expressing both KM670/671NL mutated human APP and L166P mutated human PS1 under the Thy-1 promoter element (Radde et al., 2005) were treated with the compounds from the age of 126 days after birth (DAB) to 158 DAB. Mice were treated as described in A3. above. On completion of the dosing period, samples were taken from the animals and snap frozen using liquid nitrogen as reported herein previously (see Section A3. above).\nIn the model, plaque load in the brain is known to increase roughly exponentially with age (Radde et al., 2005). […] These conditions should be suitable to provide insight, whether initial formation of plaques or downstream processes reversing existing plaque loads are involved in corresponding drug effects."}, "[3]": {"assay": "ACI-91 and ACI-92 levels in plasma, CSF and brain homogenates of transgenic mice", "format": "in vivo, mouse", "details": "for concentration in brain as % of plasma concentration / Kp at 33 days: 100 mg/kg ACI-91 or 50 mg/kg ACI-92, 33 days; for Kp at 33 days: mouse, brain homogenate, oral, read-out: concentration in brain as % of plasma concentration", "experimental": "Determination of ACI-91 and ACI-92 in mouse plasma, CSF and brain homogenate samples was done by HPLC-MS/MS by Quality Assistance SA, Technoparc de Thudinie 2, B-6536 Donstiennes, Belgium.\nThe amounts of ACI-91 and of ACI-92 in plasma, CSF and in brain homogenates is determined after treatment of hAPP single transgenic mice (JSW, Graz) and hAPP-PS1 double-transgenic mice (Synovo, Tübingen), respectively, for 33 days with doses of 1, 5, 20 and 100 mg/kg of ACI-91 and 50 mg/kg ACI-92 and doses of 100 mg/kg of ACI-91 and 50 mg/kg ACI-92, respectively."}, "[4]": {"system": "hAPP Tg mice (APP751S/L)", "assay": "Morris Water Maze in hAPP Tg mice", "format": "in vivo, mouse", "details": "for performance in Morris Water Maze: other concentration of AC-91 (not 1 or 20 mg/kg) or Compounds B; for probe trial: crossings over the former target position: 1 mg/kg, versus Tween 80 vehicle group", "experimental": "Therefore, mice were treated for 33 days and in the end of the treatment period behavior was evaluated in the Morris Water Maze and additionally a Object Recognition Task.\nFemale Tg and nTg mice with a C57BL/6×DBA background and an age of 7 months (±2 week) were randomly assigned to treatment groups 1 to 9 (n=20 for groups 3 to 7, n=15 for groups 1, 2, 8 and 9). […] All animals which were used for the present study had dark eyes and were likely to perceive the landmarks outside the MWM pool. However, it had to be excluded that seeing abilities of an animal were poor, which was controlled in the visible platform training, the so called pretest, before treatment start for all animals including reserves enclosed to the study. In case a seeing handicap for a specific animal would have been affirmed, the mouse would have been excluded from the study.\nCompounds or vehicle were administered via oral gavage in a daily volume of 10 ml/kg/b.w. for 33 days.\nThe Morris Water Maze task was conducted in a black circular pool of a diameter of 100 cm. Tap water was filled in with a temperature of 22±1° C. and the pool was virtually divided into four sectors. A transparent platform (8 cm diameter) was placed about 0.5 cm beneath the water surface. During the whole test session, except the pretest, the platform was located in the southwest quadrant of the pool.\nOne day before the 4 days lasting training session animals had to perform a so called “pre-test” (two 60 sec lasting trials) to ensure that the seeing abilities of each animal were normal. Only animals that fulfilled this task were enclosed to the MWM testing.\nIn the MWM task, each mouse had to perform three trials on four consecutive days. A single trial lasted for a maximum of one minute. During this time, the mouse had the chance to find the hidden, diaphanous target. If the animal could not find a “way” out of the water, the investigator guided to or placed the mouse on the platform. After each trial mice were allowed to rest on the platform for 10-15 sec.\nDuring this time, the mice had the possibility to orientate in the surrounding. Investigations took place under dimmed light conditions, to prevent the tracking system from negative influences (Kaminski; PCS, Biomedical Research Systems). On the walls surrounding the pool, posters with black, bold geometric symbols (e.g. a circle and a square) were fixed which the mice could use the symbols as landmarks for their orientation.\nOne swimming group per trial consisted of five to six mice, so that an intertrial time of about five to ten minutes was ensured. For the quantification of escape latency (the time [second]−the mouse needed to find the hidden platform and therefore to escape from the water), of pathway (the length of the trajectory [meter] to reach the target) and of the abidance in the goal quadrant a computerized tracking system was used. The computer was connected to a camera placed above the centre of the pool. The camera detected the signal of the light emitting diode (LED), which was fixed with a little hairgrip on the mouse's tail.\nTwenty-four hours after the last trial on day 4 the mice had to fulfil a so-called probe trial. At this time, the platform was removed from the pool and during the one-minute probe trial; the experimenter counted the number of crossings over the former target position. Additionally the abidance in this quadrant as well as the three other quadrants was calculated. Through out this trial a mouse could not get any, howsoever natured, clue from the platform."}, "[5]": {"format": "in vivo", "details": "daily oral gavage, 33 days; AC-91 in four different concentrations", "text": "In total 171 female hAPP Tg and nTg mice with an age of 6.5 months at treatment start were enclosed to study."}}, "note": "Entries after “also recorded” stand apart in the source; their conditions may differ. Like-named read-outs stand apart in the source and are kept apart here.", "data": [{"smiles": "O=C1Nc2cccnc2Nc2ccccc21", "note": "[AC-92, LS-75]", "values": [{"measurement": "Kp", "setting": "[1]; male, Lewis, ip, 50 mg/kg", "result": "~0.25"}, {"measurement": "concentration at 3 h", "setting": "[1]; male, Lewis, po, 50 mg/kg", "result": "~20", "unit": "nM"}, {"measurement": "concentration at 6 h", "setting": "[1]; male, Lewis, po, 50 mg/kg", "result": "~75", "unit": "nM"}, {"measurement": "enrichment in the brain", "setting": "[1]; po", "result": "enriched in the brain to a certain extent"}, {"measurement": "increase of amyloid load as % of that expected with normal progression of the model", "setting": "[2]", "result": 55, "unit": "%"}, {"measurement": "increase of amyloid load as % of that expected with normal progression of the model", "setting": "[2]; listed as formula III", "result": "about 60%"}, {"measurement": "plaque volume and area smaller than vehicle-treated controls", "setting": "[2]; month 2-3", "result": "about 26%"}, {"measurement": "plaque volume and area smaller than vehicle-treated controls", "setting": "[2]; month 4-5", "result": "about 26%"}, {"measurement": "β-amyloid plaque load", "setting": "[2]; daily p.o. 50 mg/kg AC-92 or 100 mg/kg AC-91 for one month, between months 1 and 5 after birth", "result": "substantial reductions"}, {"measurement": "amyloid load", "setting": "[2]; treated animals after 3 months, 50 mg/kg daily p.o.", "result": 0.61, "unit": "%"}, {"measurement": "concentration in brain as % of plasma concentration", "setting": "[3]; 4 months old double transgenic mice", "result": "about 5%"}, {"measurement": "concentration in CSF as % of plasma concentration", "setting": "[3]; 4 months old double transgenic mice, listed as ACI92", "result": 20, "unit": "%"}, {"measurement": "concentration in brain as % of plasma concentration", "setting": "[3]; 8 months old single transgenic mice", "result": 11, "unit": "%"}, {"measurement": "Kp at 33 days", "setting": "[3]; hAPP single transgenic, 8 months old single transgenic mice", "result": "~0.11"}, {"measurement": "Kp at 33 days", "setting": "[3]; hAPP-PS1 double-transgenic, 4 months old double transgenic mice", "result": "~0.05"}, {"measurement": "Morris Water Maze / probe trial versus Tween 80 vehicle mice", "setting": "[4]; AC-92 treated mice", "result": "no difference to the Tween 80 mice"}, {"measurement": "performance in Morris Water Maze", "setting": "[4]", "result": "weak performance similar to that observed in the historic tg group"}, {"measurement": "tolerability of the treatment", "setting": "[5]", "result": "well tolerated"}]}, {"smiles": "O=C1Nc2cccnc2N(C(=O)CN2CCNCC2)c2ccccc21", "note": "[des-methyl-AC-91]", "values": [{"measurement": "detection in CSF", "setting": "[1]; po, 50 mg/kg", "result": "No AC-91 or dm-AC-91 was detected"}]}, {"smiles": "CN1CCN(CC(=O)N2c3ccccc3C(=O)Nc3cccnc32)CC1", "note": "[AC-91, pirenzepine]", "values": [{"measurement": "half-life", "setting": "[1]; male, Lewis, po", "result": "~12", "unit": "h"}, {"measurement": "escape latency in Morris Water Maze", "setting": "[4]; 1 mg/kg daily oral, 33 days", "result": "reduced relatively to the historic group"}, {"measurement": "probe trial: crossings over the former target position", "setting": "[4]", "result": "significantly (p<0.05) more often"}, {"measurement": "probe trial: crossings over the former target position", "setting": "[4]; listed as formula II", "result": "significantly more often"}, {"measurement": "escape latency in Morris Water Maze", "setting": "[4]; 20 mg/kg daily oral, 33 days", "result": "comparable escape latency to the ntg vehicle treated mice; also recorded: reduced relatively to the historic group"}, {"measurement": "escape latency in Morris Water Maze", "setting": "[4]; 20 mg/kg daily oral, 33 days, listed as formula II", "result": "comparable escape latency to the non transgenic vehicle treated mice"}, {"measurement": "memory performance", "setting": "[4]; dose escalation to 100 mg/kg", "result": "didn't improve memory performance"}, {"measurement": "performing the Morris Water Maze task compared to the historic group", "setting": "[4]; hAPP Tg mice, 33 days", "result": "led to an improvement"}, {"measurement": "performance in Morris Water Maze", "setting": "[4]", "result": "weak performance similar to that observed in the historic tg group"}]}]}
